US9249116B2, “Enzyme-activating compounds and compositions” (The Board of Trustees of the University of Illinois, priority 2012, dated 2016)

Tests used:
procaspase-3 = target: T1, procaspase-3 (Homo sapiens, UniProt P42574); assay: Procaspase-3 activity assay (relief of zinc-mediated inhibition, Ac-DEVD-pNA cleavage); format: biochemical; conditions: procaspase-3 incubated with […] ZnSO4; method gives compounds at 25 μM
T1 construct: 6xHis (C); made in house; host or cells: Rosetta E. coli
T1 sequence (P42574 1-277): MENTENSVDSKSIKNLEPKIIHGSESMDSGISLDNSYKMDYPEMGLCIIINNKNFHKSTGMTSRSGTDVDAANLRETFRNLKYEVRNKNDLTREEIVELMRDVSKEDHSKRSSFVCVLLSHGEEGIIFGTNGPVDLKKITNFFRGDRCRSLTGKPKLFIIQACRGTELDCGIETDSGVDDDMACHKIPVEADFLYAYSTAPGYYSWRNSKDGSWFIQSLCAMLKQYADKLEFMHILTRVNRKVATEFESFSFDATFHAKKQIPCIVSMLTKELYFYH
Description: The six confirmed hits were then evaluated in vitro for their ability to relieve zinc-mediated inhibition of procaspase-3 (Table A). In this experiment, procaspase-3 was incubated with ZnSO4, conditions in which procaspase-3 has no enzymatic activity.
Techniques adapted from Hergenrother and coworkers (Putt et al., Nat Chem Biol 2006, 2, 543-550). A 20 mL volume of an overnight culture of Rosetta E. coli containing the procaspase-3 (wild-type) expression plasmid was seeded into 2 L of LB media containing ampicillin. The culture was grown to an OD600=1.0, at which point protein expression was induced via addition of IPTG (to 1 mM); the culture was allowed to grow for 30 additional minutes. Cells were then harvested (10 minute spins at 10,000×g and re-suspended in NTA binding buffer (300 mM NaCl, 50 mM Tris, 10 mM imidazole, pH 8.0). The cells were lysed on ice via sonication. The cell lysate was then spun at 35,000×g for […] The supernatant was decanted and 1 mL of nickel-NTA resin was added. The cell lysate was incubated for 45 minutes at 4° C. The resin was loaded on a column, washed with 10 mL NTA binding buffer followed by 10 mL NTA wash buffer (300 mM NaCl, 50 mM Tris, 50 mM imidazole, pH 8.0). The proteins were eluted in 0.5 mL fractions with 10 mL of NTA elution buffer (300 mM NaCl, 50 mM Tris, 500 mM imidazole, pH 8.0). Fractions containing protein were pooled and further purified to remove any contaminating zinc by applying the protein to a PD-10 column (GE Healthcare) charged with Caspase Activity Buffer that had been treated with Chelex® resin. The resulting concentration was determined using the Edelhoch method and the molar absorptivity of procaspase-3 of 26150 M^−1 cm^−1. Protein stocks were flash-frozen in liquid nitrogen and stored at −80° C.
In a 384-well plate recombinantly expressed, zinc-free procaspase-3 (wild type, at 1 μM) in Caspase Activity Buffer (50 mM HEPES, 300 mM NaCl, 1.5 mM TCEP, 0.01% TritonX-100) was incubated at 37° C. in the presence of 3.5 μM ZnSO4 and the basal activity was assessed via the addition of Ac-DEVD-pNA (final concentration in well of 200 μM). The absorbance at 405 nm was monitored with a SpectraMax plate reader (Molecular Devices). […] Activity of each treatment was assessed at 5, 20, 40 and 60 minutes via 5-minute kinetic reads. The slope of each data set was used to determine the activity of the protein. Activity was normalized to a percent activity at each time point using a zinc-free sample and a zinc-inhibited sample treated with DMSO.

[1] = test system: U-937 cells (human lymphoma); assay: 72 Hour IC50 cell death assay (sulforhodamine B); format: cell-based; conditions: read-out: U-937 72 h IC50 (μM), Table 1, U-937 cells, 72 h
Description: After the synthesis was complete, the biological activity of the compounds was evaluated.
U-937 human lymphoma cells were plated into the wells of 96 well plate at a density of 15,000 cells per well in 99 μL of RPMI 1640 growth media with 10% FBS and 1% pen-strep. To each well was added 1 μL of compound stock solutions in DMSO at varying concentrations such that the cells were treated with concentrations between 0 μM and 100 μM compound. Each concentration was tested in quintuplicate per plate. In each plate 5 wells received 20 μM doxorubicin as a positive death control and 5 wells received 1 μL of DMSO as a negative control.
After the 72 hour incubation period, the plates were analyzed using a Sulforhodamine B assay (Vichai and Kirtikara, Nat Protoc 2006, 1, 1112-1116). Specifically, to each well of the plate 25 μL of a 50% (w/v) solution of trichloroacetic acid in H2O was added and the plates were incubated for 4 hours at 4° C. The plates were then washed gently with water five times. The plates were allowed to air dry after which 100 μL of a 0.057% (w/v) Sulforhodamine B in a 1% (v/v) acetic acid solution was added to each well for 30 minutes at room temperature. The plates were gently washed 5 times with 1% (v/v) acetic acid and air dried. 200 μL of 10 mM Tris base (pH 10.4) was added to each well and the plates were placed on an orbital shaker for thirty minutes. The level of SRB was quantified fluorometrically at excitation and emission wavelengths 488 and 585 nm, respectively, on a Molecular Devices plate reader and the percent cell death calculated and normalized to the positive control (100% cell death) and the negative control (0% cell death). The percent cell death was averaged for each compound concentration and plotted as a function of compound concentration. The data were fit to a logistical dose response curve using Table curve 2D and the IC50 value was calculated. The experiment was repeated three times and the average of the calculated IC50 values was reported. The standard error of the mean (SEM) was determined and reported for the triplicate experiments.

mice = assay: Assessment of toxicity in vivo; conditions: mice; scale 0 to 3, or time of death
Excerpt: The level of toxicity was rated on a scale of 0 (no observable adverse effect) to 3 (severe toxicity, almost fatal).

[2] = Liver microsome stability assay; format: in vitro ADME; conditions: rat liver microsomes, 10 μM, LC/MS
Description: FIG. 4. Liver Microsome Stability Assay. Compounds (10 μM) incubated with liver microsomes for 3 h and quenched with MeCN containing internal standard, analyzed by LC/MS (280 nm). Next, the metabolic stability of the compounds was evaluated in rat liver microsomes. The compounds were evaluated for 3 hours at 10 μM, and the metabolites were observed by LC/MS.

| Procaspase-3 (% Activity at […]) (procaspase-3) [%] | SMILES | IC50 [1] [µM] | Mouse Toxicity (mice) | RLM 3 h % Stability [2] [%] |
| --- | --- | --- | --- | --- |
| 53 ± 4.1 | COc1ccc(CN2CCN(CC(=O)N/N=C/c3cc(C(C)(C)C)cc(C(C)(C)C)c3O)CC2)cc1 [3{2,7}] |  |  |  |
| 64 ± 2.5 | COc1ccc(OC)c(CN2CCN(CC(=O)N/N=C/c3cc(C(C)(C)C)cc(C(C)(C)C)c3O)CC2)c1 [3{4,7}] |  |  |  |
| 36 ± 1.6 | CC(C)(C)c1cc(/C=N/NC(=O)CN2CCN(Cc3ccc(OCc4ccccc4)cc3)CC2)c(O)c(C(C)(C)C)c1 [3{18,7}] |  |  |  |
| 82 ± 2.4 | C=CCc1cccc(/C=N/NC(=O)CN2CCN(Cc3ccc(C(C)(C)C)cc3)CC2)c1O [3{20,24}, N′-(3-allyl-2-hydroxybenzylidene)-2-(4-(4-(tert-butyl)benzyl)piperazin-1-yl)acetohydrazide] |  |  |  |
| 69 ± 5.3 | CC(C)(C)c1cc(/C=N/NC(=O)CN2CCN(Cc3ccc4ccccc4c3)CC2)c(O)c(C(C)(C)C)c1 [3{25,7}] |  |  |  |
|  | C=CCc1cccc(/C=N/NC(=O)CN2CCN(C(=O)c3ccc(F)cc3)CC2)c1O [Compound 7, N′-(3-allyl-2-hydroxybenzylidene)-2-(4-(4-fluorobenzoyl)piperazin-1-yl)acetohydrazide] | 10.2 ± 1.7 | 2 | 86 ± 2 |
|  | CCCc1cccc(/C=N/NC(=O)CN2CCN(Cc3ccccc3)CC2)c1O [Compound 10, 2-(4-benzylpiperazin-1-yl)-N′-(2-hydroxy-3-propylbenzylidene)acetohydrazide] | 9.6 ± 2.1 | 2 | 30 ± 1 |
|  | CCCc1cccc(/C=N/NC(=O)CN2CCN(Cc3ccc(F)cc3)CC2)c1O [Compound 15, 2-(4-(4-fluorobenzyl)piperazin-1-yl)-N′-(2-hydroxy-3-propylbenzylidene)acetohydrazide] | 10 ± 1.7 | death <24 h (the mice died either within 24 hours of treatment) | 24 ± 2 |
|  | O=C(CN1CCN(Cc2ccccc2)CC1)N/N=C/c1cc(F)ccc1O [Compound 19, 2-(4-benzylpiperazin-1-yl)-N′-(5-fluoro-2-hydroxybenzylidene)acetohydrazide] | 17 ± 1.4 | 3 | 64 ± 4 |
|  | NS(=O)(=O)c1ccc(CN2CCN(CC(=O)N/N=C/c3cc(F)ccc3O)CC2)cc1 [Compound 20, 4-((4-(2-(2-(5-fluoro-2-hydroxybenzylidene)hydrazinyl)-2-oxoethyl)piperazin-1-yl)methyl)benzenesulfonamide] | 19.6 ± 3.8 | death >72 h (greater than 72 hours post-treatment) | 85 ± 6 |
|  | N#Cc1ccc(CN2CCN(CC(=O)N/N=C/c3cc(F)ccc3O)CC2)cc1 [Compound 22, 2-(4-(4-cyanobenzyl)piperazin-1-yl)-N′-(5-fluoro-2-hydroxybenzylidene)acetohydrazide] | 13.5 ± 1 | death <24 h (the mice died either within 24 hours of treatment) | 79 ± 4 |
|  | O=C(CN1CCN(Cc2ccc(F)cc2)CC1)N/N=C/c1cc(F)ccc1O [Compound 24, N′-(5-fluoro-2-hydroxybenzylidene)-2-(4-(4-fluorobenzyl)piperazin-1-yl)acetohydrazide] | 11.7 ± 1.4 | 3 | 62 ± 2 |
|  | O=C(CN1CCN(Cc2ccc(C(F)(F)F)cc2)CC1)N/N=C/c1cc(F)ccc1O [Compound 26, N′-(5-fluoro-2-hydroxybenzylidene)-2-(4-(4-(trifluoromethyl)benzyl)piperazin-1-yl)acetohydrazide] | 4.7 ± 0.3 | 3 | 30 ± 5 |
|  | O=C(CN1CCN(C(=O)c2ccc(C(F)(F)F)cc2)CC1)N/N=C/c1cc(F)ccc1O [Compound 27, N′-(5-fluoro-2-hydroxybenzylidene)-2-(4-(4-(trifluoromethyl)benzoyl)piperazin-1-yl)acetohydrazide] | 8.7 ± 0.5 | 2 | 87 ± 3 |
|  | C=CCc1cc(F)cc(/C=N/NC(=O)CN2CCN(Cc3ccccc3)CC2)c1O [Compound 28, N′-(3-allyl-5-fluoro-2-hydroxybenzylidene)-2-(4-benzylpiperazin-1-yl)acetohydrazide] | 9.5 ± 0.9 | death <24 h (the mice died either within 24 hours of treatment) | 56 ± 1 |
|  | C=CCc1cc(F)cc(/C=N/NC(=O)CN2CCN(C(=O)c3ccccc3)CC2)c1O [Compound 30, N′-(3-allyl-5-fluoro-2-hydroxybenzylidene)-2-(4-benzoylpiperazin-1-yl)acetohydrazide] | 8.6 ± 2 | 2 | 93 ± 7 |
|  | C=CCc1cc(F)cc(/C=N/NC(=O)CN2CCN(C(=O)c3ccc(F)cc3)CC2)c1O [Compound 34, N′-(3-allyl-5-fluoro-2-hydroxybenzylidene)-2-(4-(4-fluorobenzoyl)piperazin-1-yl)acetohydrazide] | 8.5 ± 1.4 | 3 | 92 ± 3 |
|  | CCCc1cc(F)cc(/C=N/NC(=O)CN2CCN(Cc3ccccc3)CC2)c1O [Compound 37, 2-(4-benzylpiperazin-1-yl)-N′-(5-fluoro-2-hydroxy-3-propylbenzylidene)acetohydrazide] | 8.9 ± 1.2 | death <24 h (the mice died either within 24 hours of treatment) | 49 ± 6 |
|  | CCCc1cc(F)cc(/C=N/NC(=O)CN2CCN(C(=O)c3ccccc3)CC2)c1O [Compound 39, 2-(4-benzoylpiperazin-1-yl)-N′-(5-fluoro-2-hydroxy-3-propylbenzylidene)acetohydrazide] | 12.3 ± 1 | 2 | 86 ± 5 |
|  | CCCc1cc(F)cc(/C=N/NC(=O)CN2CCN(C(=O)c3ccc(F)cc3)CC2)c1O [Compound 43, N′-(5-fluoro-2-hydroxy-3-propylbenzylidene)-2-(4-(4-fluorobenzoyl)piperazin-1-yl)acetohydrazide] | 7.5 ± 1.4 | 3 | 67 ± 3 |
